From ChEMBL document CHEMBL1201862, “PubChem BioAssay data set” (2004)
Activity calls are given as the source filed them.

Key:
[1] = target: Photoreceptor-specific nuclear receptor (Homo sapiens, UniProt Q9Y5X4); assay type: functional, cell-based;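 also: CHO-S cells with Gal4-NCOR and VP16-NR2E3 two-hybrid luciferase reporter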
[2] = target: T1, ATP-dependent translocase ABCB1 (Homo sapiens, UniProt P08183); experiment: ABCB1 efflux inhibitor potency, dose response, Jurkat-DNR cells, JC-1, flow cytometry, set 2 (AID 504569); assay type: functional; conditions: read-out: EC50_MICROM_;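 also: potency of pump inhibitors that raise cellular JC-1 green fluorescence up to the nicardipine level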
[3] = target: T1, ATP-dependent translocase ABCB1; experiment: ABCG2 efflux pump inhibitor potency, dose response, Ig-MXP3 cells, JC-1, flow cytometry, set 2 (AID 504566); assay type: functional; conditions: read-out: EC50_MICROM_;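 also: flow cytometry median green fluorescence of retained JC-1 dye; potency of efflux pump inhibition measured as rising substrate retention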
[4] = target: T2, DNA repair protein RAD52 homolog (Homo sapiens, UniProt P43351); assay type: functional, biochemical
T2 sequence (P43351 whole entry): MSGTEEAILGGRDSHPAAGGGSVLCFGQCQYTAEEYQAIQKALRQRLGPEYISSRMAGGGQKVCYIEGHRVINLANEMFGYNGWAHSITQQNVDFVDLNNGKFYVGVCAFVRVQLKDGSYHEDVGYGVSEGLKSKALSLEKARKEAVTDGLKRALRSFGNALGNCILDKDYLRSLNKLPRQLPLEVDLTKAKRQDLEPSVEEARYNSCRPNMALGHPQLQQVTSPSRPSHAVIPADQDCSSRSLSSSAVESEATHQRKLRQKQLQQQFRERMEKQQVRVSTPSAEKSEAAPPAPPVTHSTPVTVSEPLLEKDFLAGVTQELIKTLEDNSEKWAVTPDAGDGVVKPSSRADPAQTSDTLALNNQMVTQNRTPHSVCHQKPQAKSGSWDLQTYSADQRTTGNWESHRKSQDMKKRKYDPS

Paired box protein Pax-8 = Paired box protein Pax-8 (Homo sapiens, UniProt Q06710); experiment: inhibitors of PAX8-driven TPO luciferase reporter, dose response, RMG-I cells, cherry-pick (AID 687027); assay type: functional, cell-based;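 also: luciferase reporter driven by Pax8 target thyroperoxidase promoter measured by SteadyGlo luminescence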
Melanocortin receptor 4 = Melanocortin receptor 4 (Homo sapiens, UniProt P32245); assay type: functional, cell-based;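 also: Cell-based assay with luminescence read-out, confirmatory dose-response testing for agonist activity of biased ligands at MC4R; human U2OS cells with tagged receptor and beta-arrestin; potency of agonists that increase receptor coupling to beta-arrestin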
[5] = target: T3, Sentrin-specific protease 1 (Homo sapiens, UniProt Q9P0U3); experiment: potency of human SENP1 inhibitors, dose response, biochemical, kinetic FRET (AID 651697); assay type: functional; conditions: read-out: IC50_Mean
[6] = target: T3, Sentrin-specific protease 1; experiment: Dose response confirmation of small molecule inhibitors of the catalytic domain of the SUMO protease, SENP1 in a FRET assay.; assay type: functional; conditions: read-out: IC50_Mean
HEK293 = experiment: inhibitors of LMP1-driven NF-kB reporter, dose response, cell-based, HEK293, luciferase, cherry-pick (AID 588343); assay type: functional; conditions: Homo sapiens
[7] = target: COUP transcription factor 2 (Homo sapiens, UniProt P24468); experiment: Luminescence-based cell-based high throughput dose response assay to identify inhibitors of COUP-TFII (NR2F2).; assay type: functional;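 also: HEK293 cells transiently cotransfected with COUP-TFII expression vector and reporter; luciferase reporter luminescence driven by COUP-TFII from the pX2-168 reporter plasmid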
Protein Wnt-3a = Protein Wnt-3a (Mus musculus, UniProt P27467); experiment: Wnt3a-driven reporter signaling inhibition, dose response, selectivity assay for Gli-SUFU antagonist project, Wnt-LIGHT cells, luminescence (AID 651570); assay type: functional; conditions: read-out: IC50_Mean;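 also: Wnt-LIGHT reporter cells stimulated with conditioned medium from Wnt3a-producing cells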
[8] = target: Hepatocyte nuclear factor 4-alpha (Homo sapiens, UniProt P41235); assay type: functional, cell-based;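 also: biochemical luminescence-based dose-response counterscreen measuring inhibition of HNF4 dimerization, run alongside a screen for blockers of ABHD5–perilipin-5 interaction; split luciferase complementation of HNF4 fusion proteins in cell lysate measuring dimerization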
[9] = microbe, parasite or virus in culture; assay type: functional; conditions: Mycobacterium tuberculosis
[10] = target: Heat shock protein HSP 90-alpha (Homo sapiens, UniProt P07900); assay type: functional, organism-based
[11] = target: T4, Aryl hydrocarbon receptor (Homo sapiens, UniProt P35869); conditions: Potency;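 also: confirmatory quantitative high-throughput screen measuring activation of the AhR signaling pathway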
T4 sequence (P35869 whole entry): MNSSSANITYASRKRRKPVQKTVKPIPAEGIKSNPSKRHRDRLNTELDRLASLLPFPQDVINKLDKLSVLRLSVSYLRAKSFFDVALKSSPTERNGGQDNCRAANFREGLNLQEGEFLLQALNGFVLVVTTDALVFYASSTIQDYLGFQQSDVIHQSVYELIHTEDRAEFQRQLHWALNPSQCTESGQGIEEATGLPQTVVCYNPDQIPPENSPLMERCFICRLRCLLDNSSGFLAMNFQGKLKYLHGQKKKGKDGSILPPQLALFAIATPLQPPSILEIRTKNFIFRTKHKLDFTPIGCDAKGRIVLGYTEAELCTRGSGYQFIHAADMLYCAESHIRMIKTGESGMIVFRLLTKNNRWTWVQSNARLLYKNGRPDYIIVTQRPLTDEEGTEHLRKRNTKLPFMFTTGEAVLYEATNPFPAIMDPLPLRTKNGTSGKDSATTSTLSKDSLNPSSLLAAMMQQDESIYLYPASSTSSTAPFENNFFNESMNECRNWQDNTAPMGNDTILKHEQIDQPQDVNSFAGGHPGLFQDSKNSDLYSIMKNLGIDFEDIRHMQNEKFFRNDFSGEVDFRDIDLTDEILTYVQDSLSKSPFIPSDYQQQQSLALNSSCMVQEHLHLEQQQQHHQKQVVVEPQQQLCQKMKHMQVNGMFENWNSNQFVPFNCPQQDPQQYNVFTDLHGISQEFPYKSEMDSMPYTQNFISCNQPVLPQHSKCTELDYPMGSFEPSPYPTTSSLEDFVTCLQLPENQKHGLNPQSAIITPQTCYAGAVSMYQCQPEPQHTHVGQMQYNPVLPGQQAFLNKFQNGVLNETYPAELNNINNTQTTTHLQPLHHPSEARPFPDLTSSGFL

[12] = target: T5, Probable nicotinate-nucleotide adenylyltransferase (Staphylococcus aureus (strain N315), UniProt P65502); assay type: functional, Staphylococcus aureus subsp. aureus N315;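 as to IC50 Mean: confirmatory dose-response retesting of NadD inhibitor hits first found in an ultra-high-throughput screen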
[13] = target: DNA (cytosine-5)-methyltransferase 1 (Homo sapiens, UniProt P26358); experiment: DNMT1 methyltransferase inhibitors, confirmation, biochemical, fluorescent molecular beacon (AID 602386); assay type: functional
[14] = target: T5, Probable nicotinate-nucleotide adenylyltransferase; assay type: functional, Staphylococcus aureus subsp. aureus N315; conditions: read-out: IC50_Mean
[15] = target: T6, Carboxy-terminal domain RNA polymerase II polypeptide A small phosphatase 1 (Homo sapiens, UniProt Q9GZU7); experiment: inhibitors of CTDSP1, concentration-response testing, biochemical assay, absorbance-based, actives from ultra-high-throughput screening (AID 540297); assay type: functional
T6 sequence (Q9GZU7 whole entry): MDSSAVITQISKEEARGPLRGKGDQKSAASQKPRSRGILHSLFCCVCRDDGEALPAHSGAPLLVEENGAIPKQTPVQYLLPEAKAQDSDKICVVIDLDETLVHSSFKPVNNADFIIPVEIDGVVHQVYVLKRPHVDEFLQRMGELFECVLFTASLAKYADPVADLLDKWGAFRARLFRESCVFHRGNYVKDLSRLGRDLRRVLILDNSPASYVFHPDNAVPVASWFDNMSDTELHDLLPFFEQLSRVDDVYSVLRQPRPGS

[16] = cytotoxicity toward DRD oncogenic fibroblasts, dose response, cell-based, non-viral oncogenic, luminescence (AID 1934); assay type: functional; conditions: Homo sapiens
BJ [17] = experiment: cells; assay type: functional, cell-based; conditions: Homo sapiens
BJ [18] = experiment: cytotoxicity toward BJ-TERT-LT-ST fibroblasts, dose response, cell-based, RAS-independent, luminescence (AID 1935); assay type: functional; conditions: Homo sapiens;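 also: BJ fibroblasts immortalized with TERT plus LT and ST oncogenes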
[19] = target: ADP-ribosylation factor GTPase-activating protein 1 (Rattus norvegicus, UniProt Q62848); experiment: Fluorescence polarization-based biochemical high throughput dose response screening assay to identify inhibitors of ADP-ribosylation factor GTPase activating protein 1 (ARFGAP1).; assay type: functional
[20] = target: T7, Zinc finger protein mex-5 (Caenorhabditis elegans, UniProt Q9XUB2); experiment: MEX-5/TCR-2 RNA interaction inhibitors, dose response, biochemical, C. elegans, fluorescence polarization (AID 1960)
T7 sequence (Q9XUB2 whole entry): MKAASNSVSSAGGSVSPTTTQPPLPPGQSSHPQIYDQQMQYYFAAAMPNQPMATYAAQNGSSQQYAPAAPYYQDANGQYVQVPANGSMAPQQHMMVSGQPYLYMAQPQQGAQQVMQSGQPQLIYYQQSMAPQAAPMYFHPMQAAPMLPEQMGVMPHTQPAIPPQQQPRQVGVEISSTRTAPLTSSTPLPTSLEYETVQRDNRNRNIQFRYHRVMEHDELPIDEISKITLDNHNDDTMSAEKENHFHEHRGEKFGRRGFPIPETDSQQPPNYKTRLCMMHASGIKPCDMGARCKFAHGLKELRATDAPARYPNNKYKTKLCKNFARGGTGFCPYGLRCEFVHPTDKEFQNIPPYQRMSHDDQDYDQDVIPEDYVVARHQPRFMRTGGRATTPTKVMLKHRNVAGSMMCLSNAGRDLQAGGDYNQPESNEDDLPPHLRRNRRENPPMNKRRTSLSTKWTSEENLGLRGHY

[21] = target: Neurotensin receptor type 1 (Homo sapiens, UniProt P30989); assay type: functional;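 also: Image-based confirmatory dose-response assay measuring agonist activity at NTR1; NTR1-expressing U2OS osteosarcoma cells imaged for beta-arrestin GFP spot formation; agonist potency where compounds increase beta-arrestin recruitment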
[22] = target: T8, RNA-binding protein pos-1 (Caenorhabditis elegans, UniProt G5EF15); experiment: inhibitors of POS-1/mex-3 RNA binding, dose response, biochemical, fluorescence polarization (AID 1964);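 also: purified POS-1 fused to maltose binding protein made in E. coli; potency of compounds blocking POS-1 binding to fluorescent RNA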
T8 sequence (G5EF15 whole entry): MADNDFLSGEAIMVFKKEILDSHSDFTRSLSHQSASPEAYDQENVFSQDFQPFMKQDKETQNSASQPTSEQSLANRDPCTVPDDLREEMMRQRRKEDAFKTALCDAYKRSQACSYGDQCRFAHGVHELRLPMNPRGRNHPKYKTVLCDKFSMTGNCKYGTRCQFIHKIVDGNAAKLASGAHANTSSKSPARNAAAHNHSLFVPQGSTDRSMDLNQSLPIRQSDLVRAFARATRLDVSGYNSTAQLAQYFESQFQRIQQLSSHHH

BJ [23] = experiment: cytotoxicity toward BJ-TERT fibroblasts, dose response, cell-based, RAS-independent, luminescence (AID 1933); assay type: functional; conditions: Homo sapiens

T1 sequence (P08183 whole entry): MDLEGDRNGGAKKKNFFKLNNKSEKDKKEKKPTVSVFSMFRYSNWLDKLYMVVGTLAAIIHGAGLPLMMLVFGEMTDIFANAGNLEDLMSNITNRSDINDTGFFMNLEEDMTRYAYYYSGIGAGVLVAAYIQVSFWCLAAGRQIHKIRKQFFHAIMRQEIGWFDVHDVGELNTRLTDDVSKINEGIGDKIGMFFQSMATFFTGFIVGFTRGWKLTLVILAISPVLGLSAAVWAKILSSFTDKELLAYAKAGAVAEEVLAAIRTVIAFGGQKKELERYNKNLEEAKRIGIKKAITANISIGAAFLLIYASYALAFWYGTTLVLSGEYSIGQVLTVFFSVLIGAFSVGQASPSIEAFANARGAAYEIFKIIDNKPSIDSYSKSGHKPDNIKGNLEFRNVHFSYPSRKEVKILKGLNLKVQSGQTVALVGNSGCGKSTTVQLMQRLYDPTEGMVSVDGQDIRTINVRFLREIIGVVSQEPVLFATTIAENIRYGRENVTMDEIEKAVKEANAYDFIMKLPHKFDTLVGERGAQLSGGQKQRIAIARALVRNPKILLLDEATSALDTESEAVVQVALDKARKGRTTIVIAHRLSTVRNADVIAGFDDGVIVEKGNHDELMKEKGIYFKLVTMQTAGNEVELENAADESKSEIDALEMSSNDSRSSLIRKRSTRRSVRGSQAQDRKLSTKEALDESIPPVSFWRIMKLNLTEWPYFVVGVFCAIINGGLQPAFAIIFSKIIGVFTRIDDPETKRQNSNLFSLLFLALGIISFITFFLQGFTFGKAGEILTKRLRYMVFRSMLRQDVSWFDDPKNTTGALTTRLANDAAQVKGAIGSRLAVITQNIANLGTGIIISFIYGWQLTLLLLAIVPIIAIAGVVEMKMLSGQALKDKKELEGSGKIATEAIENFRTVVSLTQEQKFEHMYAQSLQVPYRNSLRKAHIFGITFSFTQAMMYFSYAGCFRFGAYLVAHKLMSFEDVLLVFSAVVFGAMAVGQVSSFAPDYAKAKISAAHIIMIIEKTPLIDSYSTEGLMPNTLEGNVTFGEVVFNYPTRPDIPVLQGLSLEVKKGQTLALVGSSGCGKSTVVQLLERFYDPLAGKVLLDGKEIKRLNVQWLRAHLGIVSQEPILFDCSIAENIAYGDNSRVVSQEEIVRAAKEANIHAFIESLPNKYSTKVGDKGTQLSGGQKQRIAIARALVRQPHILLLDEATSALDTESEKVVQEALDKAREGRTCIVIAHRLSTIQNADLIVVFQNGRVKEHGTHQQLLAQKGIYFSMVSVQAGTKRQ
T3 sequence (Q9P0U3 whole entry, the tested form may be a part): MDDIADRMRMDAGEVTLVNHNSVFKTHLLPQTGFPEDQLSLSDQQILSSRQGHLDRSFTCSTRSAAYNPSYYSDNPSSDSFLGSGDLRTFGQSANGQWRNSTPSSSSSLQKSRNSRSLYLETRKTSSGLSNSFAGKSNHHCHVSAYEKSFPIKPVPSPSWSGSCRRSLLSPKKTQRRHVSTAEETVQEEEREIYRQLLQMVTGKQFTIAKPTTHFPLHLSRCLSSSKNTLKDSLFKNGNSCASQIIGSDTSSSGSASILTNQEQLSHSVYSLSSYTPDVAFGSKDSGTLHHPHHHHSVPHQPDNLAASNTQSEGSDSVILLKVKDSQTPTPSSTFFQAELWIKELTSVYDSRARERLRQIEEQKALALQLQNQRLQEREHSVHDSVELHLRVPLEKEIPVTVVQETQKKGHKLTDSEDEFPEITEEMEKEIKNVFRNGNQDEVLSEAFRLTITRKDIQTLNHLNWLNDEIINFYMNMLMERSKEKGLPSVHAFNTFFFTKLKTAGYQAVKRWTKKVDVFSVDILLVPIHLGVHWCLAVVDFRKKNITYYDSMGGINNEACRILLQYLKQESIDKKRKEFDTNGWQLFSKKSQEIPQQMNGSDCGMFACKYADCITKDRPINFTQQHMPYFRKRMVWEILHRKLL
T5 sequence (P65502 whole entry): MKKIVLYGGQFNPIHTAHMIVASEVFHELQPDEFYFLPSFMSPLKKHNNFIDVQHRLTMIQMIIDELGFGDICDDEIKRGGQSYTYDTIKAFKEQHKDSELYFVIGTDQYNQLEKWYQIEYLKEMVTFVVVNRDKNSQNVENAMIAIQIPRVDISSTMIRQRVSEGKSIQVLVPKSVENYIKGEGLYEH
Sequence of COUP transcription factor 2 (P24468 whole entry): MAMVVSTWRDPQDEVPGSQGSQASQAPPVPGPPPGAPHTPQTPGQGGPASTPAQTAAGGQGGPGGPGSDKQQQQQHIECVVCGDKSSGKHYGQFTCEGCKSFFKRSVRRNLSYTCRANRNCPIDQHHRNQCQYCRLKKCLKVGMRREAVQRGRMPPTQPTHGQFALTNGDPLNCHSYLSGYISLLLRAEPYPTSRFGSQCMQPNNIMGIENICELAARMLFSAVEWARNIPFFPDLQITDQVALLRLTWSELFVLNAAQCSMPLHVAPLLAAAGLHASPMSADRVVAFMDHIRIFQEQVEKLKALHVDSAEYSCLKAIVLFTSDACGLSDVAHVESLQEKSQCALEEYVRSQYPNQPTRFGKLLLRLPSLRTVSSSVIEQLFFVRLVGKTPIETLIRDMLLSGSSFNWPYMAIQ
Sequence of Hepatocyte nuclear factor 4-alpha (P41235 whole entry, the tested form may be a part): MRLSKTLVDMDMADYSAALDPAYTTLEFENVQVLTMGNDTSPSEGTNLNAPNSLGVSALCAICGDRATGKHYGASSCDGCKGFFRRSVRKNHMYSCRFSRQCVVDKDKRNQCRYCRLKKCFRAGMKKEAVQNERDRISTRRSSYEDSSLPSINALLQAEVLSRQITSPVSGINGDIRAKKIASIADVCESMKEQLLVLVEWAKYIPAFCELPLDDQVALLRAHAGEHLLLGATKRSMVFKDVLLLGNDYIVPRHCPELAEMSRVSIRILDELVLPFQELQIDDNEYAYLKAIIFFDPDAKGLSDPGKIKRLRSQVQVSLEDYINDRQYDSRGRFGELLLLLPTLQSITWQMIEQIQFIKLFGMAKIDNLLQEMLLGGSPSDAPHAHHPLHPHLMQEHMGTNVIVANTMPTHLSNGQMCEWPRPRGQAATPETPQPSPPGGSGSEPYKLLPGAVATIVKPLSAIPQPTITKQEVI
Sequence of Paired box protein Pax-8 (Q06710 whole entry): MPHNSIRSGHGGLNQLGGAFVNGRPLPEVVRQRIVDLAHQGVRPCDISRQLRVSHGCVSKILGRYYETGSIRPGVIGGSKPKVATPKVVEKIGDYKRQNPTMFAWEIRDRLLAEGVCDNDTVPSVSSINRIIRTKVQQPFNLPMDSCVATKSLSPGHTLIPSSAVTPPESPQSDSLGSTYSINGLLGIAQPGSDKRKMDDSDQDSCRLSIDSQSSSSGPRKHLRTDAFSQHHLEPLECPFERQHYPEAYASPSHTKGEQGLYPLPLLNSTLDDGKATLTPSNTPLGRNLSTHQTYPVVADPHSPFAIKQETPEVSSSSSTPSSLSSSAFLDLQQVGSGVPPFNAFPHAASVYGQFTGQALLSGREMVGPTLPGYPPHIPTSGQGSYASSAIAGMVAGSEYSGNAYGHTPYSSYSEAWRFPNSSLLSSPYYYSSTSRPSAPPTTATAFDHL
Sequence of Melanocortin receptor 4 (P32245 whole entry): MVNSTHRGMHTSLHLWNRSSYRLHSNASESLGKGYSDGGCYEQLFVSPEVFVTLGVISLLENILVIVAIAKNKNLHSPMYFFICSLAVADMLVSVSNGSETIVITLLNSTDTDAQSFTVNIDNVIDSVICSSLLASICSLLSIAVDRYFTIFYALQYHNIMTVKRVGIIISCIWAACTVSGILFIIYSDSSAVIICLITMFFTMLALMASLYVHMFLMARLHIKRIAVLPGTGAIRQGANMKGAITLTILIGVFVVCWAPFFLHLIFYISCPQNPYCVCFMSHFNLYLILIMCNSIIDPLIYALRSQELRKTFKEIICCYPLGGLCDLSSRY
Sequence of Protein Wnt-3a (P27467 whole entry, the tested form may be a part): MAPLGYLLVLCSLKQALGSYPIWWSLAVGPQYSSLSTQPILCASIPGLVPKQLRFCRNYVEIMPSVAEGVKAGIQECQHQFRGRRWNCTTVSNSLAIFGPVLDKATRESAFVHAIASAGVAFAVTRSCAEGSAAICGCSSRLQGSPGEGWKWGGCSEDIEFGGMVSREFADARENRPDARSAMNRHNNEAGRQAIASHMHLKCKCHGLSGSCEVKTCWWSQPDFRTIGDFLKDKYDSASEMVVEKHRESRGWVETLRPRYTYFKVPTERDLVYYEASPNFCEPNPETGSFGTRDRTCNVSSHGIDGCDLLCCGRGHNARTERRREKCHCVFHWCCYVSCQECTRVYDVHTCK
Sequence of ADP-ribosylation factor GTPase-activating protein 1 (Q62848 whole entry): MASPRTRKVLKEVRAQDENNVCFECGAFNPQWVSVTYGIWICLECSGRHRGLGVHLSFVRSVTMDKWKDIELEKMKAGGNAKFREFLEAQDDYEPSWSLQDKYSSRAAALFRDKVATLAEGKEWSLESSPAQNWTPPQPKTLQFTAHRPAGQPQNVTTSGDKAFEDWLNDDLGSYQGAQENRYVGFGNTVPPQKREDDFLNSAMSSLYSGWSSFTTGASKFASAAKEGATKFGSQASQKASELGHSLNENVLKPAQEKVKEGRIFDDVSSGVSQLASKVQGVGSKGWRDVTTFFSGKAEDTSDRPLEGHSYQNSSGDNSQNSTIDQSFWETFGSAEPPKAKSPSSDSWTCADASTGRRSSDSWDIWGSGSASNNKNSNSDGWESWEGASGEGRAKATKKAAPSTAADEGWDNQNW
Sequence of Neurotensin receptor type 1 (P30989 whole entry, the tested form may be a part): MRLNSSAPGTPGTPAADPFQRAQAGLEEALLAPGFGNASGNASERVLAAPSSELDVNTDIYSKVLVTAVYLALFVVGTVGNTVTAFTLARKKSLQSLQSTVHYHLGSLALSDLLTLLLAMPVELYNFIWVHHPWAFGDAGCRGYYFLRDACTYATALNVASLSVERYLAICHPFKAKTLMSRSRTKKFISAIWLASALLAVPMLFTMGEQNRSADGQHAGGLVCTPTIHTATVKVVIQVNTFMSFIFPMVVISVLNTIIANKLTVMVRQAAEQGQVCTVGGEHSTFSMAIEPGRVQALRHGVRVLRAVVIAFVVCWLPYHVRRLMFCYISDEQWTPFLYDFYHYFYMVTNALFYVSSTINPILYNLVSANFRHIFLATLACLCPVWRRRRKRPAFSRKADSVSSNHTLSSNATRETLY

COc1ccc(CNC(=O)c2cccc3c(-c4ccc(F)c(F)c4)coc23)cc1OC
IC50 [1]: 4.63 µM (active)

O=C(c1ccoc1)N1CCN(c2cc(-c3ccccc3)nc3cc(-c4ccc(Br)cc4)nn23)CC1
EC50 [2]: 1.06 µM (active)
EC50 [3]: 0.6 µM (active)

CC(=O)Nc1cc(-c2cccc(C(=O)NCCN(C)C)c2)cn2c(-c3cccc(C(F)(F)F)c3)cnc12
AC50 [4]: 3.93 µM (active)
AC50 (Paired box protein Pax-8): 11.5 µM (active)
EC50 (Melanocortin receptor 4): > 89.2 µM (inactive)

Cc1cc(C(=O)NCc2ccccc2F)c2ccccc2n1
IC50 [5]: 17.9 µM (active)
IC50 [6]: 10.8 µM (active)

COc1ccc(N2CCN(c3[nH]cnc4c5ccccc5nc3-4)CC2)cc1
AC50 (HEK293): 0.865 µM (active)
IC50 [7]: 5.54 µM (active)
IC50 (Protein Wnt-3a): 1.14 µM (active)

Cc1ccc(S(=O)(=O)N2C[C@H]3n4c(=O)ccc(=O)n4C[C@H](OC(=O)Nc4cccs4)[C@@]3(O)C2)cc1
IC50 [8]: 14.6 µM (inactive)

CC(=O)N1CCN(c2ccc(OC[C@H]3CO[C@](Cn4ccnc4)(c4ccc(Cl)cc4Cl)O3)cc2)CC1 [KETOCONAZOLE]
CC50 [9]: > 40 µM (active)
AC50 [10]: 0.435 µM (active)
AC50 [11]: 44.7 µM (inconclusive)

CN(C)C(CNC(=O)c1cc(-c2ccco2)nc2ccccc12)c1ccccc1 (configuration not stated)
IC50 [12]: 11.2 µM (active)
IC50 [13]: 6.25 µM (active)
IC50 [14]: 25.9 µM (active)
IC50 [15]: 2.75 µM (active)

COc1cc2c3nnc(-c4ccc(F)cc4)c-3cn(Cc3ccc(C)cc3)c2cc1OC
EC50 [16]: 10.4 µM (active)
EC50 (BJ [17]): 17.3 µM (active)
EC50 (BJ [18]): 4.86 µM (active)
IC50 [19]: 70 µM (inactive)
EC50 [20]: 1.1 µM (inconclusive)
EC50 [21]: 2.4 µM (active)
EC50 [22]: 2.2 µM (inconclusive)
EC50 (BJ [23]): 5.16 µM (inconclusive)
